Assay [1] relates to HIV-1 (IIIB) in MT-4 cells. The following applies: HIV-1-induced cytopathic effect in MT-4 cells. In general terms: Damage to the host cells serves as the signal in cytopathic effect assays.
Assay [2] concerns RT-associated DNA polymerase function. To be noted: cited from earlier work.
Assay [3] has as its target recombinant HIV-1 IN ST activity (Human immunodeficiency virus type 1 group M subtype B, UniProt P04585). Nature of the assay: biochemical.
Assay [4] addresses HIV-1 RT-associated RNase H activity (Human immunodeficiency virus type 1 group M subtype B, UniProt P04585). Nature of the assay: biochemical.

Bounds are passed on as bounds.

Broadly, the IC50 is the concentration that gives 50% inhibition.

As to `O=C(/C=C/c1cccn1Cc1ccc(F)cc1)CC(=O)C(=O)O` [8g, 6-[1-(4-Fluorophenyl)methyl-1H-pyrrol-2-yl]-2,4-dioxo-5-hexenoic Acid], the “activity in the CPE assay” value in assay [1] was “antiviral”.

Consider `O=C(/C=C/c1cccn1Cc1ccc(Cl)cc1)CC(=O)C(=O)O` [8i, 6-[1-(4-Chlorophenyl)methyl-1H-pyrrol-2-yl]-2,4-dioxo-5-hexenoic Acid], for which the “activity in the CPE assay” value in assay [1] is “inactive”.

As for `CCOC(=O)C(=O)CC(=O)/C=C/c1cccn1Cc1ccc(F)cc1` [7g, 6-[1-(4-Fluorophenyl)methyl-1H-pyrrol-2-yl]-2,4-dioxo-5-hexenoic Acid Ethyl Ester], in assay [1], the “activity in the CPE assay” value is “antiviral”. For the same molecule, the “activity against RT-associated DNA polymerase function” value in assay [2] is “inactive”.

For `CCOC(=O)C(=O)CC(=O)/C=C/c1cccn1Cc1cccc(F)c1` [7f, 6-[1-(3-Fluorophenyl)methyl-1H-pyrrol-2-yl]-2,4-dioxo-5-hexenoic Acid Ethyl Ester], in assay [1], the “activity in the CPE assay” value is “antiviral”.

In the case of `CCOC(=O)C(=O)CC(=O)/C=C/c1cccn1Cc1ccc(C#N)cc1` [7l, 6-[1-(4-Cyanophenyl)methyl-1H-pyrrol-2-yl]-2,4-dioxo-5-hexenoic Acid Ethyl Ester], the IC50 in assay [3] was greater than 111 µM.

With `CCOC(=O)C(=O)CC(=O)/C=C/c1cccn1Cc1ccccc1OCC` [7o, 6-[1-(2-Ethoxyphenyl)methyl-1H-pyrrol-2-yl]-2,4-dioxo-5-hexenoic Acid Ethyl Ester], in assay [4], the IC50 was greater than 100 µM.

Take `CCOC(=O)C(=O)CC(=O)/C=C/c1cccn1Cc1ccccc1` [7a, 6-[1-(Phenyl)methyl-1H-pyrrol-2-yl]-2,4-dioxo-5-hexenoic Acid Ethyl Ester]: in assay [1], the “activity in the CPE assay” value is “antiviral”.

`CCOC(=O)C(=O)CC(=O)/C=C/c1cccn1Cc1ccccc1F` [7e, 6-[1-(2-Fluorophenyl)methyl-1H-pyrrol-2-yl]-2,4-dioxo-5-hexenoic Acid Ethyl Ester]: the “activity in the CPE assay” value in assay [1] is on record as “antiviral”.

For `CCOC(=O)C(=O)CC(=O)/C=C/c1cccn1Cc1ccc(Cl)cc1Cl` [7w, 6-[1-(2,4-Dichlorophenyl)methyl-1H-pyrrol-2-yl]-2,4-dioxo-5-hexenoic Acid Ethyl Ester], the IC50 in assay [3] is greater than 111 µM.

Take `O=C(/C=C/c1cccn1Cc1ccccc1)CC(=O)C(=O)O` [8a, 6-[1-(Phenyl)methyl-1H-pyrrol-2-yl]-2,4-dioxo-5-hexenoic Acid]: the “activity in the CPE assay” value in assay [1] is reported as “antiviral”.

On to `CCOC(=O)C(=O)CC(=O)/C=C/c1cccn1Cc1ccccc1OC` [7m, 6-[1-(2-Methoxyphenyl)methyl-1H-pyrrol-2-yl]-2,4-dioxo-5-hexenoic Acid Ethyl Ester], for which the IC50 in assay [4] is greater than 100 µM.

The values are drawn from article PMC7581279 (Journal of medicinal chemistry, 2013).
